Activity calls are given as the source filed them. No cut-off for these calls is given here.

In the first assay the test system is Salmonidae. In words: Displacement of SYBR green I from salmon testes DNA assessed as SYBR green I treated with DNA followed by compound added relative to control.
`C[n+]1ccn(CCCCCCCCCCCCCCCCn2cc[n+](C)c2)c1`: the outcome was Active. Still for that read-out and setting: then `C[n+]1ccn(CCCCCCCCCCCCCCCn2cc[n+](C)c2)c1`, with “Active”; and `c1cn(CCCCCCCCCCCCCCCCn2ccnc2)cn1`, with “Active”.

The test system of another assay is Salmonidae. In words: Displacement of SYBR green I from salmon testes DNA assessed as compound treated with SYBR green I followed by DNA added relative to control.
Take `C[n+]1ccn(CCCCCCCCCCCCCCCCn2cc[n+](C)c2)c1`: the outcome was Active.

Take `c1cn(CCCCCCCCCCCCCCCCCCn2ccnc2)cn1`: the outcome was Active.

Target in another assay: not listed separately
The assay is described as follows: Displacement of SYBR green I from salmon testes DNA assessed as compound treated with DNA followed by SYBR green I added relative to control. Also on record: species or system Salmonidae.
The term IC50 denotes the point on the concentration scale where inhibition reaches its midpoint. In the case of `C[n+]1ccn(Cc2ccc(-c3ccc(Cn4cc[n+](C)c4)cc3)cc2)c1`, the IC50 was more than 2500 µM. For `c1cn(CCCCCCCCn2ccnc2)cn1`, the IC50 was more than 2500 µM. `c1cn(Cc2ccc(-c3ccc(Cn4ccnc4)cc3)cc2)cn1`: the IC50 was more than 2500 µM. The same measure, in the same setting: then `C[n+]1ccn(CCCCCCCCCCCCn2cc[n+](C)c2)c1`, with more than 2500 µM. Consider `COc1cc(-c2ccc(-n3nc(-c4ccc([N+](=O)[O-])cc4)n[n+]3-c3ccc([N+](=O)[O-])cc3)c(OC)c2)ccc1-n1nc(-c2ccc([N+](=O)[O-])cc2)n[n+]1-c1ccc([N+](=O)[O-])cc1`, for which the IC50 was 34 µM. As to `COc1cc(-c2ccc(-[n+]3nc(-c4ccccc4)nn3-c3ccc([N+](=O)[O-])cc3)c(OC)c2)ccc1-[n+]1nc(-c2ccccc2)nn1-c1ccc([N+](=O)[O-])cc1` [NITROBLUE TETRAZOLIUM CHLORIDE], the IC50 is 360 µM. `C[n+]1ccn(CCCCCCCCCCCCCCCCn2cc[n+](C)c2)c1`: the IC50 was determined as 30 µM.

Turning to `c1cn(-c2ccc(-n3ccnc3)cc2)cn1`, the IC50 was more than 2500 µM. As for `C[n+]1ccn(CCCCCCCCCCCCCCCn2cc[n+](C)c2)c1`, the IC50 was more than 2500 µM. Consider `c1cn(CCCCCCCCCCCCCCCCCCn2ccnc2)cn1`, for which the IC50 worked out at 58 µM. Regarding `C[n+]1ccn(-c2ccc(-n3cc[n+](C)c3)cc2)c1`, the IC50 was more than 2500 µM.

Regarding `C[n+]1ccn(CCCCCCCCCCCCCn2cc[n+](C)c2)c1`, the IC50 is 25.2 µM. Regarding `C[n+]1ccn(CCCCCCCCCCCCCCn2cc[n+](C)c2)c1`, the IC50 turned out to be 1210 µM. The same measure, in the same setting: then `c1cn(CCCCCCCCCCCCCCn2ccnc2)cn1`, with more than 2500 µM; and `O=[N+]([O-])c1ccc(-n2nc(-c3ccccc3)n[n+]2-c2ccc(I)cc2)cc1` [IODONITROTETRAZOLIUM CHLORIDE], with more than 2500 µM; and `c1cn(CCCCCCCCCCCCn2ccnc2)cn1`, with more than 2500 µM. Still for that read-out and setting: then `c1cn(CCCCCCn2ccnc2)cn1`, with more than 2500 µM; and `Ic1ccc(Cn2cc[n+](Cc3ccc(I)cc3)c2)cc1`, with more than 2500 µM; and `c1ccc(-c2nn(-c3ccccc3)[n+](-c3cccc4ccccc34)n2)cc1` [TETRAZOLIUM VIOLET], with more than 2500 µM. As to `c1ccc(-c2nn(-c3ccccc3)[n+](-c3ccc(-c4ccc(-[n+]5nc(-c6ccccc6)nn5-c5ccccc5)cc4)cc3)n2)cc1` [NEOTETRAZOLIUM CHLORIDE], the IC50 amounted to 66 µM. Consider `Brc1ccc(C[n+]2ccn(Cc3ccccc3)c2)cc1`, for which the IC50 was more than 2500 µM.

For the compound `c1ccc(C[n+]2ccn(-c3ccc(-c4ccc(-n5cc[n+](Cc6ccccc6)c5)cc4)cc3)c2)cc1`, the IC50 turned out to be 370 µM.

Regarding `c1ccc(-c2nn(-c3ccccc3)[n+](-c3ccccc3)n2)cc1` [TETRAZOLIUM RED], the IC50 was more than 2500 µM. In the case of `c1cn(CCCCCCCCCCCCCn2ccnc2)cn1`, the half-inhibitory concentration (IC50) was 186 µM. Regarding `c1cn(-c2ccc(-c3ccc(-n4ccnc4)cc3)cc2)cn1`, the IC50 was more than 2500 µM. On to `C[n+]1ccn(CCCCCCCCn2cc[n+](C)c2)c1`, for which the concentration for half-maximal inhibition (IC50) was more than 2500 µM. With `O=[N+]([O-])c1ccc(Cn2cc[n+](Cc3ccc([N+](=O)[O-])cc3)c2)cc1`, the IC50 came to 0.3 µM. As to `c1cn(CCCCCCCCCCCCCCCn2ccnc2)cn1`, the IC50 is more than 2500 µM. On to `O=[N+]([O-])c1ccc(C[n+]2ccn(-c3ccc(-c4ccc(-n5cc[n+](Cc6ccc([N+](=O)[O-])cc6)c5)cc4)cc3)c2)cc1`, for which the IC50 was found to be 0.4 µM. On to `Clc1ccc(Cn2cc[n+](Cc3ccc(Cl)cc3)c2)cc1`, for which the half-inhibitory concentration (IC50) was more than 2500 µM.

Take `C[n+]1ccn(-c2ccc(-c3ccc(-n4cc[n+](C)c4)cc3)cc2)c1`: the concentration for half-maximal inhibition (IC50) is 423 µM. With `c1cn(CCCCCCCCCCCCCCCCCCCCn2ccnc2)cn1`, the IC50 was more than 2500 µM.

With `Brc1ccc(Cn2cc[n+](Cc3ccc(Br)cc3)c2)cc1`, the IC50 was more than 2500 µM. On to `C[n+]1ccn(CCCCn2cc[n+](C)c2)c1`, for which the IC50 was more than 2500 µM. Still for that read-out and setting: then `C[n+]1ccn(CCCCCCCCCCn2cc[n+](C)c2)c1`, with more than 2500 µM; and `c1cn(CCCCCCCCCCn2ccnc2)cn1`, with more than 2500 µM; and `CC[n+]1ccn(CCCCCCCCCCCCn2cc[n+](CC)c2)c1`, with more than 2500 µM.

As for `C[n+]1ccn(CCCCCCCCCCCCCCCCCCn2cc[n+](C)c2)c1`, the IC50 was 7.4 µM. Regarding `c1cn(CCCCCCCCCCCCCCCCn2ccnc2)cn1`, the concentration for half-maximal inhibition (IC50) was found to be 52 µM. Take `C[n+]1ccn(CCCCCCn2cc[n+](C)c2)c1`: the concentration for half-maximal inhibition (IC50) was more than 2500 µM.

For the compound `C[n+]1ccn(CCCCCCCCCCCn2cc[n+](C)c2)c1`, the IC50 is more than 2500 µM.

As for `CCC[n+]1ccn(CCCCCCCCCCCCn2cc[n+](CCC)c2)c1`, the IC50 was 109 µM. As to `c1ccc2cc(Cn3cc[n+](Cc4ccc5ccccc5c4)c3)ccc2c1`, the IC50 was more than 2500 µM. The same measure, in the same setting: then `Brc1cccc(Cn2cc[n+](Cc3cccc(Br)c3)c2)c1`, with more than 2500 µM; and `c1cn(CCCCCCCCCCCn2ccnc2)cn1`, with more than 2500 µM. Same read-out and setting: then `C[n+]1ccn(CCCCCCCCCCCCCCCCCCCCn2cc[n+](C)c2)c1`, with 8 µM. On the same count and under the same terms, then `COc1cc(-c2ccc(-n3nc(-c4ccccc4)n[n+]3-c3ccccc3)c(OC)c2)ccc1-n1nc(-c2ccccc2)n[n+]1-c1ccccc1` [TETRAZOLIUM BLUE CHLORIDE], with more than 2500 µM. Consider `C[n+]1ccn(CCCOc2ccc(OCCCn3cc[n+](C)c3)cc2)c1`, for which the IC50 was more than 2500 µM. Take `c1cn(CCCCn2ccnc2)cn1`: the IC50 was more than 2500 µM. For `Clc1ccccc1Cn1cc[n+](Cc2ccccc2Cl)c1`, the half-maximal inhibitory concentration (IC50) is more than 2500 µM.

The values are drawn from ChEMBL document CHEMBL2331268, “The interaction of imidazole-, imidazolium-, and tetrazolium-containing compounds with DNA” (Bioorg Med Chem Lett, 2013).
